This test deals with HMC-1 cells. As to the kind of experiment: Mast cell test: histamine release from IgE/anti-IgE stimulated HMC-1 cells, ELISA of supernatant. Type of test: cell-based. Conditions: for Histamine reduction (%): compared to respective vehicle control; for Histamine (ng/ml) mean ± SD (n = 3): HMC-1 cells, supernatant ELISA. How it is done:
Mast cell lines, i.e. HMC1 cells (provided by Dr Joseph H. Butterfield; Mayo Clinic, Rochester, Minn., USA), were cultured in Isocove's Modified Dulbecco's Medium (IMDM) containing 10% Fetal Bovine Seum (FBS), 2 mM L-glutamine, 50 μM 2-mercaptoethanol, 100 U/mL penicillin and 100 μg/mL streptomycin. Cells were maintained at 37° C. in 5% CO2 in a humidified atmosphere. Percentage of living cells was determined by trypan blue staining. A 1:10 dilution with 50 μl cell suspension and 450 μl trypan blue was prepared and the number of living and dead cells was counted in a hemocytometer. 10^6 living cells were transferred into safe-lock Eppendorf tubes. Cell suspensions were centrifuged (200 g, 5 min) and supernatant was discarded. The effect of perilla oil, sesame oil and a combination of perilla oil and sesame oil (1:1 ratio) in the vehicle Kolliphor ELP (polyoxyl-35 hydrogenated castor oil) was determined. The positive control Cromolyn in phosphate buffer saline (PBS), the vehicles PBS and ELP were also tested as controls. After adding 100 μl IgE (100 ng/ml in PBS or ELP) to the cell pellets, cells were incubated for 12 hours over night, at 37° C. Cells were then incubated for 2 hours, at 37° C. with two different concentrations of compounds, i.e. 250 μg/ml and 500 μg/ml. After centrifugation (200 g, 5 min) supernatant was discarded and cell pellet was again incubated for 1 hour, at 37° C. with 100 μl anti-IgE (1 μg/ml in PBS or ELP). For the final incubation time of 6 hours, at 37° C., 300 μl HMC1 media was added. Cells were again centrifuged (200 g, 5 min) and supernatant was collected and stored as 300 μl aliquots at −20° C. for ELISA measurements. Cell pellets were resuspended in 100 μl HMC1 media for determining cell viability. The concentration of histamine in the collected supernatant was determined by ELISA, using a kit obtained from IBL International according to the manufacturer's guidelines. Each sample was measured twice. Due to expected measuring limits, vehicle (PBS, ELP) treated samples were diluted 1:2. Statistical analysis was performed with GraphPad Prism (Version 5.01) software (GraphPad Software Inc., San Diego, Calif., USA) using the unpaired two-tailed Students t test. A P value of less than 0.05 was considered statistically significant.

Regarding `O=C(O)c1cc(=O)c2c(OCC(O)COc3cccc4oc(C(=O)O)cc(=O)c34)cccc2o1` [Cromolyn], under “250 μg/ml”, the “Histamine reduction (%) compared to averaged histamine release of perilla oil and sesame oil” value came out at 8.41%; the “Histamine reduction (%)” value was 57.61%; the “Histamine (ng/ml) mean ± SD (n = 3)” value stood at 121.05 ± 0.73 ng/mL. Besides, where the note is “500 μg/ml”, the “Histamine reduction (%) compared to averaged histamine release of perilla oil and sesame oil” value is recorded as 6.75%; the “Histamine reduction (%)” value amounted to 55.28%; the “Histamine (ng/ml) mean ± SD (n = 3)” value was found to be 127.70 ± 13.32 ng/mL. Moreover, the “Increase of percentage of histamine reduction compared to treatment with individual compounds” value (range over 250 and 500 μg/ml) was 6.8-8.4%.

(Values after patent publication US20190151390A1, “PERILLA EXTRACT COMPOSITION” (INQPHARM GROUP SDN BHD, priority 2016, published 2019).)
